# Data published in US20260139007A1, “EPHA4 ANTAGONISTS AND USES THEREOF” (SANFORD BURNHAM PREBYS MEDICAL DISCOVERY INSTITUTE, priority 2023, published 2026).
# “And” between values parts separate entries of the source, which are not always exact repeats. Equal entries are not always repeated. Where two headings read alike, the source gives them in different places. Marks after values point to notes of the source that are not given here. Numbered stars: 1 amine (or outer) side, 2 acyl side, 3 side chain; on linkers, the order of the positions; unused ones are H or OH. Bridge positions count the residues as written; N and C are the ends. Square brackets hold non-standard residues; d marks the D form. Side chains are listed from the residue outwards. Peptide text beside a SMILES is read from it. * marks the point of attachment. γGlu = O=C(O)[C@H](CCC(=O)[*:2])N[*:1]; βAsp = O=C(O)[C@H](CC(=O)[*:2])N[*:1]; Palmitoyl = CCCCCCCCCCCCCCCC(=O)*; Lauroyl = CCCCCCCCCCCC(=O)*; Octanoyl = CCCCCCCC(=O)*; βAla = NCCC(=O)O
# Assays:
# EphA4 Fc [1] = assay: ELISA measuring inhibition of ephrin-A5 AP binding to immobilized EphA4 Fc; set-up: species or system human or mouse
# EphA4 Fc [2] = assay: ELISA inhibition of ephrin-A5 AP binding to EphA4 Fc in the presence of HSA, BSA or methyl-β-cyclodextrin; details: for IC50: read-out: IC50 ± SE (n) by ELISA with HSA or BSA, 40 mg/mL delipidated HSA; for effect of HSA on potency: presence vs absence of 40 mg/mL HSA, tested in parallel
# Description: To determine whether albumin binding to the lipidated compounds affects their ability to bind EphA4, the effects of delipidated human serum albumin (HSA) on the inhibitory potency of some of the compounds were examined.
# [3] = In vivo half-life: active compound remaining in mouse blood, deduced from apparent IC50 of plasma in the EphA4-ephrinA5 ELISA; details: for half-life: in vivo, read-out: In vivo half-life (converted)
# Description: To examine the persistence of compounds in the blood circulation, an approach was devised to determine the concentration of compound in mouse blood by taking advantage of the ELISA measuring inhibition of EphA4-ephrinA5 interaction.
# Lipidated compounds dissolved in DMSO were diluted in […] PBS (to a 5% final DMSO concentration) or in […] PBS supplemented with 20 or 40 mg/mL BSA or 6.5 mM methyl-β-cyclodextrin for intravenous or intraperitoneal injection. Neutral pH of the compound solution was verified before injection. PEGylated compounds were dissolved in […] PBS before intraperitoneal injection. Peptides were sterile filtered before administration. Blood from each mouse was collected at 3 different time points after compound injection, the first 2 times by retro-orbital bleeding and the third time by terminal cardiac bleeding under deep anesthesia. Red blood cells were removed by centrifugation from blood treated with heparin and the resulting plasma was frozen in aliquots.
# For each time point, a dose-response curves by measuring inhibition of EphA4-ephrinA5 binding at different plasma dilutions was obtained.
# [4] = inhibition of ephrin-A5 AP binding to EphA4 Fc, averages of all experiments, read-out: IC50 ± SE (n) by ELISA
# [5] = mouse, ip, mouse, IP (intraperitoneal administration)
# [6] = mouse, iv, mouse, IV (intravenous administration)
molecule,measurement,setting,value
CCCCCCCC(=O)NCCCC[C@H](NC(=O)CNC(=O)CNC(=O)[C@@H]1CSSC[C@H](NC(=O)[C@H](Cc2ccc(O)cc2)NC(=O)[C@@H]2CCCN2C(=O)CCN)C(=O)N[C@@H](C(C)C)C(=O)N[C@@H](Cc2ccc(O)cc2)C(=O)N[C@@H](CCCNC(=N)N)C(=O)NCCC(=O)N[C@@H](CO)C(=O)N[C@@H](Cc2c[nH]c3ccccc23)C(=O)N[C@@H](CO)C(=O)N1)C(=O)NCC(N)=O [Compound 7],IC50,EphA4 Fc [1]; [4],34 ± 6 nM
same,IC50,EphA4 Fc [2],110 ± 30 nM
"CCCCCCCCCCCC(=O)N[C@@H](CCC(=O)NCCCC[C@@H]1NC(=O)[C@H](Cc2ccc(O)cc2)NC(=O)[C@H](C(C)C)NC(=O)[C@@H](NC(=O)[C@H](Cc2ccc(O)cc2)NC(=O)[C@@H]2CCCN2C(=O)CCN)CSSC[C@@H](C(N)=O)NC(=O)[C@H](CO)NC(=O)[C@H](Cc2c[nH]c3ccccc23)NC(=O)[C@H](CO)NC(=O)CCNC1=O)C(=O)O [Compound 11, βAPYCVYK(lauroyl-γE)βASWSC-NH2] (H-[βAla]PYCVYK([γGlu-Lauroyl])[βAla]SWSC-NH2; disulfide 4-12)",half-life,[3]; [5],30 to 60 min
same,IC50,EphA4 Fc [1]; [4],84 ± 13 nM
CCCCCCCCCCCC(=O)N[C@@H](CC(=O)NCCCC[C@H](NC(=O)CNC(=O)CNC(=O)[C@@H]1CSSC[C@H](NC(=O)[C@H](Cc2ccc(O)cc2)NC(=O)[C@@H]2CCCN2C(=O)CCN)C(=O)N[C@@H](C(C)C)C(=O)N[C@@H](Cc2ccc(O)cc2)C(=O)N[C@@H](CCCNC(=N)N)C(=O)NCCC(=O)N[C@@H](CO)C(=O)N[C@@H](Cc2c[nH]c3ccccc23)C(=O)N[C@@H](CO)C(=O)N1)C(=O)NCC(N)=O)C(=O)O [Compound 13],IC50,EphA4 Fc [1]; [4],49 ± 11 nM
CCCCCCCCCCCCCCCC(=O)N[C@@H](CCC(=O)NCCCC[C@H](NC(=O)CNC(=O)CNC(=O)[C@@H]1CSSC[C@H](NC(=O)[C@H](Cc2ccc(O)cc2)NC(=O)[C@@H]2CCCN2C(=O)CCN)C(=O)N[C@@H](C(C)C)C(=O)N[C@@H](Cc2ccc(O)cc2)C(=O)N[C@@H](CCCNC(=N)N)C(=O)NCCC(=O)N[C@@H](CO)C(=O)N[C@@H](Cc2c[nH]c3ccccc23)C(=O)N[C@@H](CO)C(=O)N1)C(=O)NCC(N)=O)C(=O)O [Compound 18],half-life,[3]; [5],60 to 90 min
same,half-life,[3]; [6],~48 min
same,IC50,EphA4 Fc [1]; [4],520 ± 80 nM
"CCCCCCCCCCCCCCCC(=O)N[C@@H](CCC(=O)NCCCC[C@@H]1NC(=O)[C@H](Cc2ccc(O)cc2)NC(=O)[C@H](C(C)C)NC(=O)[C@@H](NC(=O)[C@H](Cc2ccc(O)cc2)NC(=O)[C@@H]2CCCN2C(=O)CCN)CSSC[C@@H](C(N)=O)NC(=O)[C@H](CO)NC(=O)[C@H](Cc2c[nH]c3ccccc23)NC(=O)[C@H](CO)NC(=O)CCNC1=O)C(=O)O [Compound 17, βAPYCVYK(palmitoyl-γE)BASWSC-NH2] (H-[βAla]PYCVYK([γGlu-Palmitoyl])[βAla]SWSC-NH2; disulfide 4-12)",IC50,EphA4 Fc [1]; [4],2300 nM
"CCCCCCCCCCCC(=O)NCCCC[C@@H]1NC(=O)[C@H](Cc2ccc(O)cc2)NC(=O)[C@H](C(C)C)NC(=O)[C@@H](NC(=O)[C@H](Cc2ccc(O)cc2)NC(=O)[C@@H]2CCCN2C(=O)CCN)CSSC[C@@H](C(N)=O)NC(=O)[C@H](CO)NC(=O)[C@H](Cc2c[nH]c3ccccc23)NC(=O)[C@H](CO)NC(=O)CCNC1=O [Compound 8, βAPYCVYK(lauroyl)βASWSC-NH2] (H-[βAla]PYCVYK(Lauroyl)[βAla]SWSC-NH2; disulfide 4-12)",IC50,EphA4 Fc [1]; [4],390 ± 80 nM
CCCCCCCCCCCCCCCC(=O)N[C@@H](CCC(=O)N[C@@H](CCC(=O)NCCCC[C@H](NC(=O)CNC(=O)CNC(=O)[C@@H]1CSSC[C@H](NC(=O)[C@H](Cc2ccc(O)cc2)NC(=O)[C@@H]2CCCN2C(=O)CCN)C(=O)N[C@@H](C(C)C)C(=O)N[C@@H](Cc2ccc(O)cc2)C(=O)N[C@@H](CCCNC(=N)N)C(=O)NCCC(=O)N[C@@H](CO)C(=O)N[C@@H](Cc2c[nH]c3ccccc23)C(=O)N[C@@H](CO)C(=O)N1)C(=O)NCC(N)=O)C(=O)O)C(=O)O [Compound 19],half-life,[3]; [5],60 to 90 min
same,half-life,[3]; [6],~48 min
same,less potent than compound 15,EphA4 Fc [1],5-6 fold
same,IC50,EphA4 Fc [1]; [4],160 ± 30 nM
same,better potency compared to compound 18 (single γGlu),"EphA4 Fc [1]; two γGlu residues vs single γGlu, palmitoyl",~3 fold
CCCCCCCCCCCC(=O)N[C@@H](CCC(=O)NCCCC[C@H](NC(=O)CNC(=O)CNC(=O)[C@@H]1CSSC[C@H](NC(=O)[C@H](Cc2ccc(O)cc2)NC(=O)[C@@H]2CCCN2C(=O)CCN)C(=O)N[C@@H](C(C)C)C(=O)N[C@@H](Cc2ccc(O)cc2)C(=O)N[C@@H](CCCNC(=N)N)C(=O)NCCC(=O)N[C@@H](CO)C(=O)N[C@@H](Cc2c[nH]c3ccccc23)C(=O)N[C@@H](CO)C(=O)N1)C(=O)NCC(N)=O)C(=O)O [Compound 14],FOLD INCREASE IN APPARENTIC IC COMPARED TO CONTROL,[3]; 0 minutes (control),1.0 fold
same,IC50,"[3]; 0 minutes: control, compound diluted in plasma in vitro",81 nM
same,% PEPTIDE 14 REMAINING IN THE BLOOD,"[3]; 0 minutes, ESTIMATED (all injected compound in 2.5 mL blood)",100* %
same,FOLD INCREASE IN APPARENTIC IC COMPARED TO CONTROL,[3]; 60 minutes after intraperitoneal injection,2.1 fold
same,% PEPTIDE 14 REMAINING IN THE BLOOD,"[3]; 60 minutes after intraperitoneal injection, MEASURED",48.2%
same,FOLD INCREASE IN APPARENTIC IC COMPARED TO CONTROL,[3]; 120 minutes after intraperitoneal injection,5 fold and 4.6 fold
same,% PEPTIDE 14 REMAINING IN THE BLOOD,"[3]; 120 minutes after intraperitoneal injection, MEASURED",20% and 21.8%
same,FOLD INCREASE IN APPARENTIC IC COMPARED TO CONTROL,[3]; 240 minutes after intraperitoneal injection,22.5 fold
same,% PEPTIDE 14 REMAINING IN THE BLOOD,"[3]; 240 minutes after intraperitoneal injection, MEASURED",4.5%
same,half-life,[3]; [5],30 to 60 min
same,half-life,[3]; [6],30 to 42 min
same,IC50,"[3]; plasma 60 minutes after intraperitoneal injection, mouse",168 nM
same,IC50,"[3]; plasma 120 minutes after intraperitoneal injection, mouse",371 nM
same,IC50,"[3]; plasma 240 minutes after intraperitoneal injection, mouse",1820 nM
same,IC50,EphA4 Fc [1]; [4],52 ± 10 nM
"CCCCCCCCCCCC(=O)N[C@@H](CC(=O)NCCCC[C@@H]1NC(=O)[C@H](Cc2ccc(O)cc2)NC(=O)[C@H](C(C)C)NC(=O)[C@@H](NC(=O)[C@H](Cc2ccc(O)cc2)NC(=O)[C@@H]2CCCN2C(=O)CCN)CSSC[C@@H](C(N)=O)NC(=O)[C@H](CO)NC(=O)[C@H](Cc2c[nH]c3ccccc23)NC(=O)[C@H](CO)NC(=O)CCNC1=O)C(=O)O [Compound 10, βAPYCVYK(lauroyl-βD)βASWSC-NH2] (H-[βAla]PYCVYK([βAsp-Lauroyl])[βAla]SWSC-NH2; disulfide 4-12)",IC50,EphA4 Fc [1]; [4],110 ± 10 nM
"CC(C)[C@@H]1NC(=O)[C@@H](NC(=O)[C@H](Cc2ccc(O)cc2)NC(=O)[C@@H]2CCCN2C(=O)[C@H](C)N)CSSC[C@@H](C(N)=O)NC(=O)[C@H](CO)NC(=O)[C@H](Cc2c[nH]c3ccccc23)NC(=O)[C@H](CO)NC(=O)CCNC(=O)[C@H](CCCCN)NC(=O)[C@H](Cc2ccc(O)cc2)NC1=O [Compound 1, APYCVYKβASWSC-NH2] (H-APYCVYK[βAla]SWSC-NH2; disulfide 4-12)",IC50,EphA4 Fc [1]; [4],67 ± 10 nM
same,effect of HSA on potency,EphA4 Fc [2],only a very small effect
same,IC50,EphA4 Fc [2],55 ± 13 nM
"CCCCCCCC(=O)NCCCC[C@@H]1NC(=O)[C@H](Cc2ccc(O)cc2)NC(=O)[C@H](C(C)C)NC(=O)[C@@H](NC(=O)[C@H](Cc2ccc(O)cc2)NC(=O)[C@@H]2CCCN2C(=O)CCN)CSSC[C@@H](C(N)=O)NC(=O)[C@H](CO)NC(=O)[C@H](Cc2c[nH]c3ccccc23)NC(=O)[C@H](CO)NC(=O)CCNC1=O [Compound 4, βAPYCVYK(octanoyl)βASWSC-NH2] (H-[βAla]PYCVYK(Octanoyl)[βAla]SWSC-NH2; disulfide 4-12)",IC50,EphA4 Fc [2],100 ± 30 nM
CC(C)[C@@H]1NC(=O)[C@@H](NC(=O)[C@H](Cc2ccc(O)cc2)NC(=O)[C@@H]2CCCN2C(=O)[C@H](C)N)CSSC[C@@H](C(=O)NCC(=O)NCC(=O)N[C@@H](CCCCN)C(=O)NCC(N)=O)NC(=O)[C@H](CO)NC(=O)[C@H](Cc2c[nH]c3ccccc23)NC(=O)[C@H](CO)NC(=O)CCNC(=O)[C@H](CCCNC(=N)N)NC(=O)[C@H](Cc2ccc(O)cc2)NC1=O [Compound 2],potency compared with APY-d2,EphA4 Fc [1]; tested in parallel in the same ELISA,not significantly different from that for APY-d2
same,effect of HSA on potency,EphA4 Fc [2],only a very small effect
CCCCCCCCCCCCCCCC(=O)N[C@@H](CCC(=O)N[C@@H](CCC(=O)NCCCC[C@H](NC(=O)[C@H](CO)NC(=O)CNC(=O)CNC(=O)CNC(=O)[C@@H]1CSSC[C@H](NC(=O)[C@H](Cc2ccc(O)cc2)NC(=O)[C@@H]2CCCN2C(=O)CCN)C(=O)N[C@@H](C(C)C)C(=O)N[C@@H](Cc2ccc(O)cc2)C(=O)N[C@@H](CCCNC(=N)N)C(=O)NCCC(=O)N[C@@H](CO)C(=O)N[C@@H](Cc2c[nH]c3ccccc23)C(=O)N[C@@H](CO)C(=O)N1)C(=O)NCC(N)=O)C(=O)O)C(=O)O [Compound 20] (H-[βAla]PYCVYR[βAla]SWSCGGGSK([γGlu-γGlu-Palmitoyl])G-NH2; disulfide 4-12),IC50,EphA4 Fc [1]; [4],190 ± 20 nM
βAPYCVYRβASWSC-linker2-PEG (XPYCVYRXSWSCXXK; not fully specified; non-natural residues; cyclised or stapled) [APY-d3-PEG2],potency compared with APY-d3,EphA4 Fc [1]; ELISA inhibition of EphA4-ephrin-A5 interaction,several fold less potent than non-PEGylated APY-d3
same,IC50,"EphA4 Fc [1]; ELISA inhibition of EphA4-ephrin-A5 interaction, read-out: IC50 (approximate)",~80 nM
